According to ChEMBL document CHEMBL5665440, “ASAP - In vitro liver microsomal stability” (2024):

How the values were obtained:
[1] = (§1) Mouse liver microsomal stability of compound in microsomal protein, PBS buffer pH 7.4, NADPH, glucose-6-phosphate and glucose-6-phosphate dehydrogenase media. Aliquotes were taken at 5 time points and after stopping the reaction, supernatants were analyzed using HPLC coupled with a tandem mass spectrometer. The elimination constant, half-life, and intrinsic clearance are determined as results using linear regression analysis.; assay type: ADME, microsomes, Microsome; conditions: for half-life / microsomal CLint: liver microsomes; for Remaining / Remaining (without cofactor): microsomes
[2] = as §1, with “Human” for “Mouse”; assay type: ADME, microsomes, Microsome; conditions: for half-life / microsomal CLint: liver microsomes; for Remaining / Remaining (without cofactor): microsomes
Throughout, for Remaining (without cofactor): time not given here.
Throughout, for Remaining: time not given here.

SMILES | half-life [1] [h] | microsomal CLint [1] [µL/min/mg] | Remaining [1] [%] | Remaining (without cofactor) [1] [%] | half-life [2] [h] | microsomal CLint [2] [µL/min/mg] | Remaining [2] [%] | Remaining (without cofactor) [2] [%]
CSc1cc2c(cc1NC(=O)c1cc(F)cc3[nH]ncc13)CNC2 | 0.212 | 131 | 11.381 | 93.133 | > 2.89 | < 10 | 88.673 | 103.344
O=C(NCC(F)F)[C@H](Nc1cc2c(cc1Br)CNC2)c1cc(Cl)cc(C2CC2)c1 | 1.21 | 22.9 | 69.524 | 97.036 | 1.08 | 25.9 | 67.209 | 94.723
COCc1cc(Cl)cc([C@H](Nc2ccc3c(c2)CNC3)C(=O)NCC(F)F)c1 | > 2.89 | < 10 | 97.4 | 108.672 | > 2.89 | < 10 | 94.228 | 112.017
CNC(=O)c1cc(Cl)ccc1NS(=O)(=O)c1ccc(Oc2ccccc2Cl)cc1 | 0.247 | 94 | 16 | 99 | 0.263 | 106 | 18 | 94
O=C(O)c1cc(Cl)ccc1NS(=O)(=O)c1ccc(Oc2ccccc2Cl)cc1 | 1.82 | 13 | 79.49 | 100.358 | 0.18 | 155 | 8.181 | 110.535
